Data on four compounds can be found in patent publication US5840684A, “Glycopeptide antibiotic derivatives” (Eli Lilly and Company, priority 1995, dated 1998).

Values after ≈ are worked out from the molar mass of the structure shown. Where only a bound is given, the exact number is not on record here.

The test system of assay [1] is Staphylococcus aureus 447. The assay can be described thus: broth micro-dilution MIC. Type of assay: cell-based. The method, then:
(§1) The MIC's were determined using a standard broth micro-dilution assay.

The subject of assay [2] is Streptococcus pyogenes C203. The assay can be described thus: broth micro-dilution MIC. It counts as cell-based. The method, then: as §1
A general note: Dilution methods test growth across graded concentrations, often in twofold steps.

In assay [3] the test system is Staphylococcus aureus X778. Kind of assay: broth micro-dilution MIC. Type of assay: cell-based. The method, then: as §1
Assay [4] has as its system Staphylococcus aureus SA1199A. The assay can be described thus: broth micro-dilution MIC. It counts as cell-based. How it is done: as §1
The test system of assay [5] is Staphylococcus aureus SA1199. The assay can be described thus: broth micro-dilution MIC. Type of assay: cell-based. The method, then: as §1
The subject of a further assay is Entercoccus faecium 276. The assay can be described thus: broth micro-dilution MIC. It counts as cell-based. How it is done: as §1
The test system of assay [6] is Entercoccus faecium 180-1. Kind of assay: broth micro-dilution MIC. It counts as cell-based. How it is done: as §1
The test system of assay [7] is Staphylococcus aureus 489. The assay can be described thus: broth micro-dilution MIC. It counts as cell-based. The method, then: as §1
Assay [8] concerns Staphylococcus aureus 491. The assay can be described thus: broth micro-dilution MIC. Type of assay: cell-based. How it is done: as §1
Assay [9] concerns Staphylococcus aureus X400. Kind of assay: broth micro-dilution MIC. It counts as cell-based. How it is done: as §1
Assay [10] concerns Staphylococcus aureus 446. The assay can be described thus: broth micro-dilution MIC. Type of assay: cell-based. How it is done:
as §1

The subject of assay [11] is Staphylococcus aureus S13E. It counts as cell-based. The method, then:
as §1

Assay [12] has as its system Staphylococcus aureus SA1199B. Type of assay: cell-based. How it is done:
as §1

The subject of assay [13] is vancomycin-resistant enterococci. The assay can be described thus: broth micro-dilution, mean geometric MIC. It counts as cell-based, Enterococcus faecium and Enterococcus faecalis. Conditions: enterococci, 24-hour incubation.
The subject of assay [14] is Streptococcus pneumoniae P1. The assay can be described thus: broth micro-dilution MIC. Type of assay: cell-based. The method, then: (§2) The formula I compounds have in vitro and in vivo activity against Gram-positive pathogenic bacteria. The MIC's were determined using a standard broth micro-dilution assay.
The subject of assay [15] is Staphylococcus haemolyticus 415. The assay can be described thus: broth micro-dilution MIC. It counts as cell-based. How it is done: as §2
In assay [16] the test system is Haemophilus influenzae RD. The assay can be described thus: broth micro-dilution MIC. It counts as cell-based. Conditions: Haemophilus influenzae RD. How it is done:
as §2

In a further assay the test system is Entercoccus faecium 180. The assay can be described thus: broth micro-dilution MIC. It counts as cell-based. Conditions: Entercoccus faecium 180. How it is done:
as §2

For the next assay, the system named is Escherichia coli EC14. The assay can be described thus: broth micro-dilution MIC. Type of assay: cell-based. How it is done:
as §2

The subject of the next assay is Entercoccus faecium 2041. Kind of assay: broth micro-dilution MIC. It counts as cell-based. Conditions: Entercoccus faecium 2041. The method, then:
as §2

In assay [17] the test system is Staphylococcus haemolyticus 105. Kind of assay: broth micro-dilution MIC. Type of assay: cell-based. The method, then:
as §2

Assay [18] relates to Enterococcus gallinarum 245. Kind of assay: broth micro-dilution MIC. Type of assay: cell-based. Conditions: Enterococcus gallinarum 245. The method, then:
as §2

The test system of assay [19] is Staphylococcus epidermidis 270. Kind of assay: broth micro-dilution MIC. It counts as cell-based. How it is done:
as §2

Assay [20] concerns vancomycin-susceptible enterococci. The assay can be described thus: broth micro-dilution, mean geometric MIC. Type of assay: cell-based, Enterococcus faecium and Enterococcus faecalis. As to conditions: enterococci, 24-hour incubation.

As to `COc1ccc2nc(-c3ccccc3)cc(CNC3(C)CC(OC4C(Oc5c6cc7cc5Oc5ccc(cc5Cl)C(OC5CC(C)(N)C(O)C(C)O5)C5NC(=O)C(NC(=O)C7NC(=O)C(CC(N)=O)NC(=O)C(NC(=O)C(CC(C)C)N(C)Cc7cc(-c8ccccc8)nc8ccc(OC)cc78)C(O)c7ccc(c(Cl)c7)O6)c6ccc(O)c(c6)-c6c(O)cc(O)cc6C(C(=O)O)NC5=O)OC(CO)C(O)C4O)OC(C)C3O)c2c1` (stereo not drawn) [Compound 277], the MIC is above 64 µg/mL in [1]; at most 0.06 µg/mL in [2]; 32 µg/mL (≈ 15.3 µM) in [3]; 1 µg/mL (≈ 0.479 µM) in assay [4]; 16 µg/mL (≈ 7.67 µM) in assay [5]; 1 µg/mL (≈ 0.479 µM) with Entercoccus faecium 276. The MIC in assay [6] came out at 0.5 µg/mL (≈ 0.24 µM); in assay [7], 16 µg/mL (≈ 7.67 µM); in [8], 8 µg/mL (≈ 3.83 µM); in assay [9] it was 32 µg/mL (≈ 15.3 µM); in [10] it was 64 µg/mL (≈ 30.7 µM); in assay [11], 16 µg/mL (≈ 7.67 µM). Moreover, the MIC in assay [12] is 16 µg/mL (≈ 7.67 µM); in [14], at most 0.06 µg/mL; in assay [15] it was above 64 µg/mL; in assay [16], above 64 µg/mL; against Entercoccus faecium 180, 2 µg/mL (≈ 0.958 µM); in the assay with Escherichia coli EC14, above 64 µg/mL. Besides, the MIC is 2 µg/mL (≈ 0.958 µM) against Entercoccus faecium 2041, above 64 µg/mL in assay [17], above 64 µg/mL in assay [18] and 16 µg/mL (≈ 7.67 µM) in assay [19]. Further, the “mean geometric MIC, Vancomycin Resistant Strains” value in assay [13] is 32 µg/mL. In addition, in [20], the “mean geometric MIC, Vancomycin Sensitive Strains” value was 1.1 µg/mL.

`CNC(CC(C)C)C(=O)NC1C(=O)NC(CC(N)=O)C(=O)NC2C(=O)NC3C(=O)NC(C(=O)NC(C(=O)O)c4cc(O)cc(O)c4-c4cc3ccc4O)C(OC3CC(C)(NCc4c5ccccc5c(C)c5ccccc45)C(O)C(C)O3)c3ccc(c(Cl)c3)Oc3cc2cc(c3OC2OC(CO)C(O)C(O)C2OC2CC(C)(NCc3c4ccccc4c(C)c4ccccc34)C(O)C(C)O2)Oc2ccc(cc2Cl)C1O` (stereo not drawn) [Compound 283]: the MIC was 32 µg/mL (≈ 16 µM) in [1]; at most 0.06 µg/mL in [2]; 8 µg/mL (≈ 4 µM) in assay [3]; 4 µg/mL (≈ 2 µM) in assay [4]; 32 µg/mL (≈ 16 µM) in assay [5]; 16 µg/mL (≈ 8 µM) with Entercoccus faecium 276. Also, the MIC in [6] stood at 0.125 µg/mL (≈ 0.0625 µM); in [7] it was 8 µg/mL (≈ 4 µM); in assay [8] it was 4 µg/mL (≈ 2 µM); in assay [9], 16 µg/mL (≈ 8 µM); in assay [10] it was 16 µg/mL (≈ 8 µM); in [11], 4 µg/mL (≈ 2 µM). The MIC in assay [12] is 32 µg/mL (≈ 16 µM); in [14] it was at most 0.06 µg/mL; in [15], 32 µg/mL (≈ 16 µM); in assay [16], above 64 µg/mL; against Entercoccus faecium 180 it was 4 µg/mL (≈ 2 µM); in the assay on Escherichia coli EC14 it was above 64 µg/mL. The MIC in the assay on Entercoccus faecium 2041 is 2 µg/mL (≈ 0.999 µM); in [17] it was above 64 µg/mL; in assay [18], 32 µg/mL (≈ 16 µM); in [19] it was 16 µg/mL (≈ 8 µM). The “mean geometric MIC, Vancomycin Resistant Strains” value in assay [13] was found to be 32 µg/mL. Besides, in assay [20], the “mean geometric MIC, Vancomycin Sensitive Strains” value was found to be 1.7 µg/mL.

Take `CC(C)CC(C(=O)NC1C(=O)NC(CC(N)=O)C(=O)NC2C(=O)NC3C(=O)NC(C(=O)NC(C(=O)O)c4cc(O)cc(O)c4-c4cc3ccc4O)C(OC3CC(C)(N)C(O)C(C)O3)c3ccc(c(Cl)c3)Oc3cc2cc(c3OC2OC(CO)C(O)C(O)C2OC2CC(C)(NCC3CC=CCC3)C(O)C(C)O2)Oc2ccc(cc2Cl)C1O)N(C)CC1CC=CCC1` (stereo not drawn) [Compound 287]: the MIC in assay [1] is 4 µg/mL (≈ 2.25 µM); in [2], at most 0.06 µg/mL; in assay [3], 0.5 µg/mL (≈ 0.281 µM); in assay [4] it was at most 0.06 µg/mL; in [5] it was 0.5 µg/mL (≈ 0.281 µM); in the assay on Entercoccus faecium 276, 0.25 µg/mL (≈ 0.14 µM). The MIC in assay [6] amounted to 0.125 µg/mL (≈ 0.0702 µM); in assay [7] it was 0.5 µg/mL (≈ 0.281 µM); in assay [8], 1 µg/mL (≈ 0.562 µM); in assay [9], 0.5 µg/mL (≈ 0.281 µM); in [10], 1 µg/mL (≈ 0.562 µM); in [11], 1 µg/mL (≈ 0.562 µM). For the same compound, the MIC in assay [12] was 0.25 µg/mL (≈ 0.14 µM); in assay [14], at most 0.06 µg/mL; in [15] it was 16 µg/mL (≈ 8.98 µM); in [16], above 64 µg/mL; against Entercoccus faecium 180, 16 µg/mL (≈ 8.98 µM); in the assay on Escherichia coli EC14 it was above 64 µg/mL. The MIC in the assay on Entercoccus faecium 2041 came to 0.125 µg/mL (≈ 0.0702 µM); in assay [17], 8 µg/mL (≈ 4.49 µM); in assay [18], 0.5 µg/mL (≈ 0.281 µM); in [19], 4 µg/mL (≈ 2.25 µM). In addition, the “mean geometric MIC, Vancomycin Resistant Strains” value in assay [13] came out at 45 µg/mL. In [20], the “mean geometric MIC, Vancomycin Sensitive Strains” value turned out to be 1.1 µg/mL.

In the case of `CNC(CC(C)C)C(=O)NC1C(=O)NC(CC(N)=O)C(=O)NC2C(=O)NC3C(=O)NC(C(=O)NC(C(=O)O)c4cc(O)cc(O)c4-c4cc3ccc4O)C(OC3CC(C)(NCc4ccc(-c5ccccc5)cc4)C(O)C(C)O3)c3ccc(c(Cl)c3)Oc3cc2cc(c3OC2OC(CO)C(O)C(O)C2OC2CC(C)(NCc3ccc(-c4ccccc4)cc3)C(O)C(C)O2)Oc2ccc(cc2Cl)C1O` (stereo not drawn) [Compound 248], the MIC in assay [1] was 4 µg/mL (≈ 2.08 µM); in assay [2], at most 0.06 µg/mL; in assay [3], 4 µg/mL (≈ 2.08 µM); in assay [4] it was 1 µg/mL (≈ 0.52 µM); in [5], 1 µg/mL (≈ 0.52 µM); against Entercoccus faecium 276, 2 µg/mL (≈ 1.04 µM). In addition, the MIC is at most 0.06 µg/mL in assay [6]; 2 µg/mL (≈ 1.04 µM) in assay [7]; 1 µg/mL (≈ 0.52 µM) in assay [8]; 4 µg/mL (≈ 2.08 µM) in assay [9]; 2 µg/mL (≈ 1.04 µM) in assay [10]; 0.5 µg/mL (≈ 0.26 µM) in assay [11]. The MIC in assay [12] is 8 µg/mL (≈ 4.16 µM); in [14], at most 0.06 µg/mL; in [15] it was 4 µg/mL (≈ 2.08 µM); in [16], above 64 µg/mL; against Entercoccus faecium 180, 0.25 µg/mL (≈ 0.13 µM); against Escherichia coli EC14 it was above 64 µg/mL. The MIC worked out at 1 µg/mL (≈ 0.52 µM) against Entercoccus faecium 2041, 2 µg/mL (≈ 1.04 µM) in [17], 4 µg/mL (≈ 2.08 µM) in [18] and 0.5 µg/mL (≈ 0.26 µM) in assay [19]. Also, in assay [13], the “mean geometric MIC, Vancomycin Resistant Strains” value came to 2 µg/mL. The “mean geometric MIC, Vancomycin Sensitive Strains” value in [20] was found to be 0.66 µg/mL.
